Each structure is given as a SMILES string.

This assay addresses T1, h-GABAA α5β2γ1 (Homo sapiens, UniProt P31644+Q8N1C3).
T1 construct: expressed in transfected cells; host or cells: HEK293F cells (ThermoFisher R79007), membranes
T1 sequence (P31644 32-462): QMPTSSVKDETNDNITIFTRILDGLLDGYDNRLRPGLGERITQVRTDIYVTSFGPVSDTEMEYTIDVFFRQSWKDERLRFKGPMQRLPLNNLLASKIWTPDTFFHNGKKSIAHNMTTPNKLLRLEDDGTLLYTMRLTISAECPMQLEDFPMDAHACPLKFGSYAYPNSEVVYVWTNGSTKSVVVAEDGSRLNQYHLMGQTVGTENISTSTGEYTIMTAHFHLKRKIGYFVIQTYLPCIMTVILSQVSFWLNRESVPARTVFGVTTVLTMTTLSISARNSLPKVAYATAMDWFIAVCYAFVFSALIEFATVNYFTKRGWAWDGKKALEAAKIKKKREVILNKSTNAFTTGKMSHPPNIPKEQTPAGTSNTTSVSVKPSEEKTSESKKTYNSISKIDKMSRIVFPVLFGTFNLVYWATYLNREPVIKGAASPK
T1 sequence (P47870 25-512 partner limits assumed): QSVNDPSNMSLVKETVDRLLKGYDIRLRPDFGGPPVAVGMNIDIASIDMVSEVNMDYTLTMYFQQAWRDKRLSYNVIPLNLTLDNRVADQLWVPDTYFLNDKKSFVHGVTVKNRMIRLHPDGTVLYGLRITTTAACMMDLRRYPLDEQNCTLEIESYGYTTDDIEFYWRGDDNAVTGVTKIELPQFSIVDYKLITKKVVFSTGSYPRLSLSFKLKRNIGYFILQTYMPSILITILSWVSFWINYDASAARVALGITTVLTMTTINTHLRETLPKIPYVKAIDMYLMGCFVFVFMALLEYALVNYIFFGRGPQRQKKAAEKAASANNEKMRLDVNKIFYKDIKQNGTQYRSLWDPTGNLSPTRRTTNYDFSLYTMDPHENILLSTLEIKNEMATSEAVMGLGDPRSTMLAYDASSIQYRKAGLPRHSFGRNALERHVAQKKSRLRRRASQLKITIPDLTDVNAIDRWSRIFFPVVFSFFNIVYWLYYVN
T1 sequence (Q8N1C3 36-465): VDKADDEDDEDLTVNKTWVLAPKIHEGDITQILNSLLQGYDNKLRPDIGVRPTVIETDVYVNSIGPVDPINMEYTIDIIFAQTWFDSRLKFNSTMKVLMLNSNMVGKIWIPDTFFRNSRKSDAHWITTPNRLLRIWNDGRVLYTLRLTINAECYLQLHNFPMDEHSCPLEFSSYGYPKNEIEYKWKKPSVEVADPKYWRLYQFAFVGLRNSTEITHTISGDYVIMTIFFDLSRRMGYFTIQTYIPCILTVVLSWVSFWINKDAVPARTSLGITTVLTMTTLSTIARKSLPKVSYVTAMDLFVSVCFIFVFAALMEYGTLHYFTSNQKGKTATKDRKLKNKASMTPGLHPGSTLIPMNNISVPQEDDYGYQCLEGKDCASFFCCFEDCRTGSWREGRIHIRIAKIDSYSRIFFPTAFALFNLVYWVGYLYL
Briefly: Radioligand binding assay, [3H]RO7239181 competition, HEK293F membranes. The protocol:
The affinity of compounds at GABAA γ1 subunit-containing receptors was measured by competition for [^3H]RO7239181 (67.3 Ci/mmol; Roche) binding to membranes from HEK293F cells (ThermoFisher R79007) expressing human (transiently transfected) receptors of composition […], α2β2γ1, α1β2γ1. For better protein expression of the α2 subunit-containing receptors, the 28 amino acid long signal peptide (Met1 to Ala28) of the human GABAA α2 subunit was substituted by the 31 amino acid long signal peptide (Met1 to Ser31) of human GABAA α5 subunit.
Harvested pellets from HEK293F cells expressing the different GABAA receptor subtypes were resuspended in Mannitol Buffer pH 7.2-7.4 (Mannitol 0.29M, Triethylamine 10 mM, Acetic acid 10 mM, EDTA 1 mM plus protease inhibitors (20 tablets Complete, Roche Diagnostics Cat. No. 05 056 489 001 per liter)), washed two times and then resuspended at 1:10 to 1:15 dilution in the same buffer. Cell disruption was performed by stirring the suspension in a Parr vessel #4637 at 435 psi for 15 minutes, and then the suspensions were centrifuged at 1000×g for 15 minutes at 4° C. (Beckman Avanti J-HC; rotor JS-4.2). The supernatant (S1) was transferred in a 21 Schott flask and the pellet (P1) was resuspended with Mannitol Buffer up to 175 ml. The resuspended pellet was transferred into a 250 ml Corning centrifugal beaker and centrifuged at 1500×g for 10 minutes at 4° C. (Beckman Avanti J-HC; rotor JS-4.2). The supernatant (S1) was then transferred in the 21 Schott flask and the pellet was discarded. The supernatants (S1) were centrifuged in 500 ml Beckman polypropylene centrifugal beaker at 15′000×g for 30 minutes at 4° C. (Beckman Avanti J-20 XP; rotor JLA-10.500). The pellet (P2) was resuspended with Mannitol Buffer 1:1 and frozen at −80° C. The supernatant (S2) was centrifuged in 100 ml Beckman polypropylene centrifugal tubes at 48000×g for 50 minutes at 4° C. (Beckman Avanti J-20 XP; rotor JA-18). The supernatant (S3) was discarded and the pellet (P3) was resuspended with 1:1 Mannitol Buffer. The P2 and P3 protein concentration was determined with the BIORAD Standard assay method with bovine serum albumin as standard and measured on the NANO-Drop 1000. The membrane suspension was aliquots (500 μl per tube) and stored at −80° C. until required. Membrane homogenates were resuspended and polytronised (Polytron PT1200E Kinematica AG) in Potassium Phosphate 10 mM, KCl 100 mM binding buffer at pH 7.4 to a final assay concentration determined with a previous experiment.
Radioligand binding assays were carried out in a volume of 200 μL (96-well plates) which contained 100 μL of cell membranes, [^3H]RO7239181 at a concentration of 1.5 nM (α5β2γ1) or 20-30 nM (α1β2γ1, α2β2γ1) and the test compound in the range of [0.3-10000]×10^−9 M. Nonspecific binding was defined by 10×10^−6 (α5β2γ1) and 30×10^−6 M RO7235136 and typically represented less than 5% (α5β2γ1) and less than 20% (α1β2γ1, α2β2γ1) of the total binding. Assays were incubated to equilibrium for 1 hour at 4° C. and then, membranes were filtered onto unifilter (96-well white microplate with bonded GF/C filters preincubated 20-50 minutes in 0.3% Polyethylenimine) with a Filtermate 196 harvester (Packard BioScience) and washed 4 times with cold Potassium Phosphate 10 mM pH 7.4, KCl 100 mM binding buffer. After drying, filter-retained radioactivity was detected by liquid scintillation counting. Ki values were calculated using Excel-Fit (Microsoft) and are the means of two determinations.
The Ki is a dissociation constant, usually derived from enzyme kinetics or from competition with a known ligand. High values mean weaker binding, low ones tighter binding. With `Cc1nnc2n1-c1ccc(Cl)c(Cl)c1C(c1ncccc1F)=NC2` [Example 71, 7,8-dichloro-6-(3-fluoro-2-pyridyl)-1-methyl-4H-[1,2,4]triazolo[4,3-a][1,4]benzodiazepine], the Ki was found to be 5.7 nM. This counts as single-digit nanomolar. `Fc1cccc(F)c1C1=NCc2nnc(-c3ccncn3)n2-c2ccc(Cl)c(Cl)c21` [Example 12, 7,8-dichloro-6-(2,6-difluorophenyl)-1-pyrimidin-4-yl-4H-[1,2,4]triazolo[4,3-a][1,4]benzodiazepine] returned an inhibitory constant (Ki) of 2.3 nM. Then `Fc1cccnc1C1=NCc2nnc(-c3cccnn3)n2-c2ccc(Cl)c(Cl)c21` [Example 54, 7,8-dichloro-6-(3-fluoro-2-pyridyl)-1-pyridazin-3-yl-4H-[1,2,4]triazolo[4,3-a][1,4]benzodiazepine], with 3.8 nM. Next, `Cc1nnc2n1-c1ccc(I)c(Cl)c1C(c1c(F)cccc1F)=NC2` [Example 41, 7-chloro-6-(2,6-difluorophenyl)-8-iodo-1-methyl-4H-[1,2,4]triazolo[4,3-a][1,4]benzodiazepine]: 0.8 nM. For the compound `Fc1cccc(F)c1C1=NCc2nnc(-c3cccnn3)n2-c2ccc(Cl)c(Cl)c21` [Example 14, 7,8-dichloro-6-(2,6-difluorophenyl)-1-pyridazin-3-yl-4H-[1,2,4]triazolo[4,3-a][1,4]benzodiazepine], affinity was put at a Ki of 0.8 nM. Next, `Fc1ccccc1C1=NCc2nnc(-c3cccnn3)n2-c2ccc(C(F)(F)F)c(Cl)c21` [Example 27, 7-chloro-6-(2-fluorophenyl)-1-pyridazin-3-yl-8-(trifluoromethyl)-4H-[1,2,4]triazolo[4,3-a][1,4]benzodiazepine]: 6.3 nM; `Cc1ccc2c(c1Cl)C(c1c(F)cccc1F)=NCc1nnc(C)n1-2` [Example 20, 7-chloro-6-(2,6-difluorophenyl)-1,8-dimethyl-4H-[1,2,4]triazolo[4,3-a][1,4]benzodiazepine]: 2.9 nM; `Fc1cccc(F)c1C1=NCc2nnc(C3CCOCC3)n2-c2ccc(Cl)c(Cl)c21` [Example 11, 7,8-dichloro-6-(2,6-difluorophenyl)-1-tetrahydropyran-4-yl-4H-[1,2,4]triazolo[4,3-a][1,4]benzodiazepine]: 8.3 nM.

The compound `Cn1cc(-c2nnc3n2-c2ccc(Cl)c(Cl)c2C(c2c(F)cccc2F)=NC3)cn1` [Example 28, 7,8-dichloro-6-(2,6-difluorophenyl)-1-(1-methylpyrazol-4-yl)-4H-[1,2,4]triazolo[4,3-a][1,4]benzodiazepine] returned a Ki of 1.4 nM. This Ki is about 5.9-fold lower than that of the compound before. Next, `Fc1cccnc1C1=NCc2nnc(-c3ccncn3)n2-c2ccc(Cl)c(Cl)c21` [Example 55, 7,8-dichloro-6-(3-fluoro-2-pyridyl)-1-pyrimidin-4-yl-4H-[1,2,4]triazolo[4,3-a][1,4]benzodiazepine]: 5.5 nM. As to `Cc1ccc2c(c1Cl)C(c1c(F)cccc1F)=NCc1nnc(-c3ccncn3)n1-2` [Example 49, 7-chloro-6-(2,6-difluorophenyl)-8-methyl-1-pyrimidin-4-yl-4H-[1,2,4]triazolo[4,3-a][1,4]benzodiazepine], the Ki worked out at 1.7 nM. Next, `Fc1cccc(F)c1C1=NCc2nncn2-c2ccc(C(F)(F)F)c(Cl)c21` [Example 37, 7-chloro-6-(2,6-difluorophenyl)-8-(trifluoromethyl)-4H-[1,2,4]triazolo[4,3-a][1,4]benzodiazepine]: 2.1 nM.

As to `Cc1nnc2n1-c1ccc(C(F)F)c(Cl)c1C(c1c(F)cccc1F)=NC2` [Example 25, 7-chloro-8-(difluoromethyl)-6-(2,6-difluorophenyl)-1-methyl-4H-[1,2,4]triazolo[4,3-a][1,4]benzodiazepine], the Ki came to 4.4 nM. This Ki lies about 2.1-fold higher than the previous one.

Turning to `Cc1nnc2n1-c1ccc(C(C)(F)F)c(Cl)c1C(c1c(F)cccc1F)=NC2` [Example 22, 7-chloro-8-(1,1-difluoroethyl)-6-(2,6-difluorophenyl)-1-methyl-4H-[1,2,4]triazolo[4,3-a][1,4]benzodiazepine], affinity was put at a Ki of 4.3 nM.

In turn, `Fc1cccnc1C1=NCc2nncn2-c2ccc(Cl)c(Cl)c21` [Example 60, 7,8-dichloro-6-(3-fluoro-2-pyridyl)-4H-[1,2,4]triazolo[4,3-a][1,4]benzodiazepine] returned an inhibitory constant (Ki) of 7.5 nM. Then `O=c1[nH]nc2n1-c1ccc(Br)c(Cl)c1C(c1c(F)cccc1F)=NC2` [Example 13, 8-bromo-7-chloro-6-(2,6-difluorophenyl)-2,4-dihydro-[1,2,4]triazolo[4,3-a][1,4]benzodiazepin-1-one], with 1.1 nM; and `Fc1ccccc1C1=NCc2nncn2-c2ccc(Br)c(Cl)c21` [Example 8, 8-bromo-7-chloro-6-(2-fluorophenyl)-4H-[1,2,4]triazolo[4,3-a][1,4]benzodiazepine], with 2.3 nM; and `COc1ccc2c(c1Cl)C(c1c(F)cccc1F)=NCc1nnc(C3CC3)n1-2` [Example 79, 7-chloro-1-cyclopropyl-6-(2,6-difluorophenyl)-8-methoxy-4H-[1,2,4]triazolo[4,3-a][1,4]benzodiazepine], with 6.8 nM. Next, `COc1nnc2n1-c1ccc(Cl)c(Cl)c1C(c1c(F)cccc1F)=NC2` [Example 90, 7,8-dichloro-6-(2,6-difluorophenyl)-1-methoxy-4H-[1,2,4]triazolo[4,3-a][1,4]benzodiazepine]: 1 nM.

The compound `Fc1cccc(F)c1C1=NCc2nncn2-c2ccc(C(F)F)c(Cl)c21` [Example 23, 7-chloro-8-(difluoromethyl)-6-(2,6-difluorophenyl)-4H-[1,2,4]triazolo[4,3-a][1,4]benzodiazepine] registered an inhibition constant Ki of 5.8 nM.

Source of the values: patent publication US20230141603A1, “BENZODIAZEPINE DERIVATIVES AS GABA A GAMMA1 PAM” (Hoffmann-La Roche Inc., priority 2021, published 2023).
